# Key:
# native antibody CHA255 = experiment: Control incubation of chelates with native antibody CHA255 (covalent labeling); format: biochemical, mouse; conditions: indium chelates incubated with native antibody; BABE: after several hours
# Procedure: As a control, the same chelates were incubated with native antibody CHA255, to see if they would covalently label it.
# S95C Fab light chain = experiment: Covalent cross-linking of 111In-labeled chelates to S95C Fab in culture medium (SDS-PAGE, phosphorimage); format: biochemical, mouse/human chimeric; conditions: 111In-labeled chelate, culture medium containing S95C mutant, 30 minutes
# Procedure: FIG. 18 is a phosphorimage of a 15% SDS-PAGE gel of samples incubated 30 minutes at 37° C. Chelates (CABE, CpABE, AABE, ABE) are in lanes 1–4, along with culture medium containing the S95C mutant. The (radiolabeled) band (at 26 kDa) in lane 1 is the crosslink between CABE (our positive control) and S95C Fab light chain. […] No crosslinks are observed with the non-nucleophilic native Fab, nor with the N96C mutant.
# 100 μl of complete culture medium from S2 cultures expressing each of the CHA255 Chimeric Fabs was mixed with 5 μl of 100 mM DOTA to sequester Cu^2+ from induction of expression. Each chelate was loaded with ^111In as previously described with a specific activity of 200 μCi. Complete metallation was analyzed by TLC as described previously. Specifically, 1 μl of chelate was added to 2.8 μl of 0.1 M citrate buffer (pH 5.5) to which was added 1.2 μl of carrier free ^111In (Nordion) ([…]) and the chelate was analyzed by TLC. 4 μl of loaded chelate was added to the 105 μl of Fab-DOTA in medium. This solution was incubated for 30 min. at room temperature. The reaction was stopped by separation of excess chelate by gel filtration spin chromatography (Penefsky column). 20 μl of eluant was added to 5 μl of sample application buffer containing β-mercaptoethanol (5×SDS PAGE SAB), boiled and reduced for 10 min. at 95° C. This was loaded onto a 1020% SDS-Page gel and electrophoriesed for 1 hr at 200V. The gel was fixed and dried via standard protocols and then exposed to a phosphorimager plate for 12 h. The plate was visualized with a Storm 640 phosphorimager (Molecular Dymanics).
# In-labeled electrophilic chelates were incubated in Fab-containing culture medium to investigate whether either of the mutant antibodies would bind irreversibly to its target. Serum-containing culture medium was used as a representation of typical biological media. […] We incubated ^111In-labeled chelates bearing electrophilic acrylamido, chloroproprionamido, or chloroacetamido groups at physiological pH and temperature with raw tissue culture medium from the cells expressing the recombinant antibodies. As a control, an ^111In-labeled chelate bearing the non-electrophilic amino group was also included. At various times after addition of the radioactive chelates, we removed samples from the incubation and applied them to a gel filtration spin column to remove excess radiolabeled chelate.
# The samples were analyzed by SDS-PAGE and visualized by phosphorimager. Separation under reducing and denaturing conditions on SDS-PAGE will separate the light chain from the heavy chain of each Fab, functionally destroying the antibody-binding pocket.
# human serum albumin = human serum albumin (Homo sapiens, UniProt P02768); experiment: Stability of 111In-labeled bifunctional chelates incubated with human serum albumin (TLC); format: in vitro ADME; conditions: after 20 hrs; 20 mM Hepes, pH 7.4, 37° C.; 1 mM free sulfhydryl as human serum albumin
# Procedure: The electrophilic chelates AABE, CABE, BABE were labeled with indium-111 and incubated in a Hepes buffered solution at physiological pH and temperature (20 mM Hepes, pH 7.4, 37° C.) containing 1 mM free sulfhydryl groups in the form of human serum albumin-approximating the concentration of thiols in plasma.
# The reactive chelates 5–7 and aminobenzyl-EDTA (“ABE”) were labeled with ^111In and analyzed by TLC (50:50 Methanol/10% NaOAc pH8.2) to show complete chelation. To 0.5 mL of human serum albumin solution was added 2 μl of one of the labeled chelates. […] The vials were mixed by manual agitation, and 2 μl was removed and analyzed by TLC.
# The fraction unreacted is plotted versus incubation time in FIG. 6. After 20 hrs, >95% of the In-AABE and In-CABE molecules were unreacted, while most of the In-BABE was attached to albumin. This confirmed the expectation that AABE and CABE are stable, and are good candidates for pretargeting. We infer that these chelates should be unreactive in blood for the length of time needed for pretargeting (40 min–4 hrs); if not, many other choices are available.
# Chain of human serum albumin (P02768 25-609): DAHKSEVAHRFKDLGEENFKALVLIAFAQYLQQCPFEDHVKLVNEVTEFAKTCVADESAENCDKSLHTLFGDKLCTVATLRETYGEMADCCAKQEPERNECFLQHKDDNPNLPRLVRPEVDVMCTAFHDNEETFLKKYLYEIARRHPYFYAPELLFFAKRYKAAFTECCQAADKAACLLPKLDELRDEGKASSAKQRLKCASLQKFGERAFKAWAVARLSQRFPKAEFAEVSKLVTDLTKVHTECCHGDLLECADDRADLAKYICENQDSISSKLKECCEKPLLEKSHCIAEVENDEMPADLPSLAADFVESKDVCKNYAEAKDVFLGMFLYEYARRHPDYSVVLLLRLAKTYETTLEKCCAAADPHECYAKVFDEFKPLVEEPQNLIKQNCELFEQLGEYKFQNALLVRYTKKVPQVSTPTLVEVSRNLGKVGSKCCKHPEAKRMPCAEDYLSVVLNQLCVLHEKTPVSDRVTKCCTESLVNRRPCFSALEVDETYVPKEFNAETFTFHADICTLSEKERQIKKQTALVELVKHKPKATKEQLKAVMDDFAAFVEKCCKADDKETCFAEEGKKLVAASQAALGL
chelate attached to albumin (human serum albumin),Compound,covalent attachment to native CHA255 (native antibody CHA255),crosslink of chelate with S95C Fab light chain (radiolabeled 26 kDa band) (S95C Fab light chain),crosslink of chelate with S95C Fab light chain (radiolabeled 26 kDa band) (S95C Fab light chain; listed as In-AABE),crosslink of chelate with S95C Fab light chain (radiolabeled 26 kDa band) (S95C Fab light chain; listed as In-CABE)
,"C=CC(=O)Nc1ccc(CC(CN(CC(=O)O)CC(=O)O)N(CC(=O)O)CC(=O)O)cc1 (stereo not shown) [AABE, Acrylamidobenzyl-EDTA]",did not covalently attach,26 kDa band,reacted equally well,
,"Nc1ccc(CC(CN(CC(=O)O)CC(=O)O)N(CC(=O)O)CC(=O)O)cc1 (stereo not shown) [ABE, aminobenzyl-EDTA, reference compound]",did not covalently attach,does not show crosslinks,,
most,"O=C(O)CN(CC(=O)O)CC(Cc1ccc(NC(=O)CBr)cc1)N(CC(=O)O)CC(=O)O (stereo not shown) [BABE, bromoacetylamidobenzyl]",did react to some degree,,,
,"O=C(O)CN(CC(=O)O)CC(Cc1ccc(NC(=O)CCl)cc1)N(CC(=O)O)CC(=O)O (stereo not shown) [CABE, chloroacetylamidobenzyl]",did not covalently attach,crosslink,,reacted equally well

# Source: patent US7118745B1, “Engineering antibodies that bind irreversibly” (The Regents of the University of California, priority 1999, dated 2006)
